Results on two molecules are retold here after patent publication US20250127868A1, “HYPERACTIVATING LIPID NANOPARTICLES” (Corner Therapeutics, Inc., priority 2022, published 2025).

Holding throughout (type): cell-based
In one assay the test system is canine PBMCs. Put plainly: IL-1β secretion by canine PBMCs (ELISA). Conditions: two days post-activation, R848 1 μg/mL, 22:0 LYSO PC 82.5 μM, LPS 1 μg/mL, Alum 30 μg/mL. On the technique in general: ELISA stands for enzyme-linked immunosorbent assay.
Assay [1] deals with human PBMCs. Put plainly: IFNγ secretion by human PBMCs (ELISA). Particulars: two days post-activation. The method, then: (§1) Isolation of PBMCs from Whole Blood. PBMCs were isolated from whole blood using density gradient centrifugation with Ficoll-Paque PLUS (Cytivia). Whole blood was diluted 1:1 with PBS, layered on top of Ficoll-Paque PLUS and centrifuged at 1000×g for 30 minutes at room temperature. PBMCs were collected, washed twice in PBS, and incubated with Ack lysis buffer (Lonza) to remove any remaining red blood cells.
(§2) Cell Culture and Stimulation. Immediately following isolation, PBMCs were plated in RPMI medium containing 10% FBS, 50 units/mL penicillin, […] streptomycin, 2 mM L-glutamine, 1 mM sodium pyruvate, and […] beta-mercaptoethanol (R10 media). […]
(§3) Endpoint Analyses. […] Half of the media volume in the wells was collected for cytokine quantification by Enzyme-Linked Immunosorbent Assay (ELISA) or Lumit™ Bioluminescent assay, while the remaining media and cells were used to quantify cell viability by assessing metabolic activity.
(§4) Quantification of Cytokine Secretion. IL-1β secretion from human PBMCs was assessed using one of the following kits: ELISA MAX Deluxe Set Human IL-1β kit (Biolegend), Invitrogen Human IL-1β kit, or the Lumit™ Human IL-1β Immunoassay (Promega). IFNγ secretion from human PBMCs was assessed using the ELISA MAX Deluxe Set Human IFNγ (Biolegend) and TNFα secretion from human PBMCs was assessed using the Human TNFα Uncoated ELISA kit (Invitrogen). […]

Assay [2] relates to human PBMCs. Description: IL-1β secretion by human PBMCs (ELISA or Lumit). Particulars: two days post-activation, R848 1 μg/mL, 22:0 LYSO PC 82.5 μM. The method, then: as §1, §2, §3, §4

Consider `Nc1nc2c(ncn2[C@@H]2O[C@@H]3COP(=O)(O)O[C@H]4[C@@H](O)[C@H](n5cnc6c(N)ncnc65)O[C@@H]4COP(=O)(O)O[C@@H]2[C@@H]3O)c(=O)[nH]1` [2′3′cGAMP, reference compound], for which the IL-1β secretion result in the assay on canine PBMCs is on record as “neither GM-CSF nor 2′3′cGAMP induced significant IL-1β secretion”. The “IFNγ secretion, fold change per donor relative to R848 alone” value in the assay with human PBMCs [1] is “neither GM-CSF nor 2′3′cGAMP elicited a substantial fold change in IFNγ secretion”.

With “GM-CSF: human GM-CSF (Peprotech), added at 10 ng/ml”, the IL-1β secretion result with canine PBMCs is reported as “neither GM-CSF nor 2′3′cGAMP induced significant IL-1β secretion”; in the assay with human PBMCs [2], “did not induce levels of IL-1β secretion from human PBMCs significantly above background levels”. Also, in the assay on human PBMCs [1], the “IFNγ secretion, fold change per donor relative to R848 alone” value is listed as “neither GM-CSF nor 2′3′cGAMP elicited a substantial fold change in IFNγ secretion”.
